Measured values from US7132454B2, “HEXIM1 as a suppressor of HIV replication and cardiac hypertrophy” (Regents of the University of California, priority 2004, dated 2006).

What was measured:
[1] = test system: right ventricular myocytes; assay: myocardial infarction model, HMBA by osmotic minipump; ventricular myocyte hypertrophy and action potential; assay type: in vivo, male Wistar rats
Source text: In a method adapted from Perrier et al. (2004), myocardial infarction (MI) is induced in 250 to 280 g male Wistar rats by left coronary artery ligation. Only post-MI hearts that show a transmural scar are used. An osmotic minipump (Alzet 2ML4) is implanted subcutaneously at the time of surgery to deliver varying amounts of HMBA or other HPC. Control animals receive carrier solution only. Cellular responses are examined over time using whole-cell, patch-clamp techniques on right ventricular myocytes. Animals are euthanized 1 and 3 weeks after surgery with intraperitoneal injection of sodium pentobarbital. Ventricular myocytes are isolated enzymatically. Cellular hypertrophy is monitored by 2-photon microscopy (Zeiss LSM 510 NLO) to calculate cell volume and the whole-cell patch-clamp technique is used to measure membrane capacitance, an electrical index of membrane surface area. To measure cell volume, the voltage-sensitive dye 1-(3-sulfonatopropyl)-[…][b-[2-(di-n-butylamino)-6-naphthyl]vinyl]pyridium betaine (di-4-ANEPPS)-loaded cells are illuminated at 840 nm with a mode-locked Ti:sapphire laser (Mira 900, Coherent) and recorded in 3D. Images of spherical beads (Molecular Probes) are recorded under the same conditions to calculate the point spread function. Deconvolution is performed with Huygens (Bitplane AG). […] AP and K^+ are measured. […]

cardiac hypertrophy = assay: HMBA infusion in patients having or susceptible to cardiac hypertrophy; assay type: in vivo; details: 24 g/m^2/d in 10-day courses
Method: Genetic testing, and/or ECG and echocardiography are used to diagnose patients susceptible to hypertrophic cardiomyopathy using methods described by Charron et al. (1997 & 2003). For genetic testing, candidate patients are from families involved in genetic studies in whom genetic analyses are performed and the causative mutation identified. Patients are identified as being at risk of inheriting the disease gene, i.e., they have a first-degree relative clinically affected by hypertrophic cardiomyopathy. The major diagnostic criteria for echocardiography are a left ventricular wall thickness >13 mm and, for ECG, abnormal Q waves, left ventricular hypertrophy, and marked ST-T changes. Clinical evaluation is performed, and blood samples are obtained. Using methods adapted from Andreeff et al. (1992), patients diagnosed as having or susceptible to cardiac hypertrophy are given HMBA treatment. A 5% solution of HMBA (NSC-95580) in distilled water is provided in 500-ml infusion bottles (25 g total per bottle). HMBA is administered at a dose of 24 g/m^2/d in 10-day courses, followed by an 18- to 75-day observation period. Plasma levels are determined daily (at 24 hours into the infusion). […] HMBA plasma levels are determined using HPLC.

HSV = details: cited from earlier work
HIV = details: cited from earlier work
[2] = test system: human vascular smooth muscle cell (VSMC); details: cited from earlier work

Which results are given for `CC(=O)NCCCCCCNC(C)=O` [HMBA, Hexamethylene bisacetamide]?
action potential ([1]; rats after myocardial infarction, 1 and 3 weeks): normal action potential; cellular hypertrophy ([1]; rats, three weeks after myocardial infarction): no signs of cellular hypertrophy; cardiac hypertrophy by morphologic analyses (cardiac hypertrophy; certain patients): reduces cardiac hypertrophy; most prominent toxicity (cardiac hypertrophy; patients): thrombocytopenia, generally reversible on cessation of administration; activation of HSV (HSV): activate viruses; activation of HIV (HIV): activate viruses; VSMC proliferation [2]: inhibit human vascular smooth muscle cell (VSMC) proliferation
